Measured values taken from PubChem BioAssay AID248 (DTP/NCI, 2004).
“And” between values parts separate entries of the source, which are not always exact repeats. Identical values can stand only once. Toxic doses and inconclusive results are not listed. Cut-off read from the data, not from the text of the source: active = T/C of 150% or more; inactive = T/C below 125%.

Tested on: L1210 leukemia ip in BDF1 mice, survival T/C
Assay: NCI In Vivo Anticancer Drug Screen. Data for tumor model L1210 Leukemia (intraperitoneal) in B6D2F1 (BDF1) mice
Details: higher = longer survival
Method in brief: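 Tumor cells were implanted, animals were treated, and survival was followed. The result divides the treated measurement by the vehicle-control measurement.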

[1] = endpoint: mean survival time, dose: 100.0 mg/kg/injection, schedule: Q01DX009 (ip), vehicle: saline with Tween-80
[2] = endpoint: mean survival time, dose: 100.0 mg/kg/injection, schedule: Q04DX003 (ip), vehicle: saline with Tween-80
[3] = endpoint: mean survival time, dose: 200.0 mg/kg/injection, schedule: Q01DX009 (ip), vehicle: saline with Tween-80
[4] = endpoint: mean survival time, dose: 200.0 mg/kg/injection, schedule: Q04DX003 (ip), vehicle: saline with Tween-80
[5] = endpoint: mean survival time, dose: 400.0 mg/kg/injection, schedule: Q01DX009 (ip), vehicle: saline with Tween-80
[6] = endpoint: mean survival time, dose: 400.0 mg/kg/injection, schedule: Q04DX003 (ip), vehicle: saline with Tween-80
[7] = endpoint: mean survival time, dose: 100.0 mg/kg/injection, schedule: Q01DX009 (ip), vehicle: saline
[8] = endpoint: mean survival time, dose: 100.0 mg/kg/injection, schedule: Q04DX003 (ip), vehicle: saline
[9] = endpoint: mean survival time, dose: 150.0 mg/kg/injection, schedule: Q01DX009 (ip), vehicle: saline
[10] = endpoint: mean survival time, dose: 200.0 mg/kg/injection, schedule: Q01DX009 (ip), vehicle: saline
[11] = endpoint: mean survival time, dose: 200.0 mg/kg/injection, schedule: Q04DX003 (ip), vehicle: saline
[12] = endpoint: mean survival time, dose: 400.0 mg/kg/injection, schedule: Q01DX009 (ip), vehicle: saline
[13] = endpoint: mean survival time, dose: 400.0 mg/kg/injection, schedule: Q04DX003 (ip), vehicle: saline
[14] = endpoint: mean survival time, dose: 5.0 mg/kg/injection, schedule: Q01DX001 (ip), vehicle: saline

Measured: T/C

CCC1=C(C[C@H]2NCCc3cc(OC)c(OC)cc32)C[C@H]2c3cc(OC)c(OC)cc3CCN2C1
inactive: endpoint: mean survival time, dose: 1.0 mg/kg/injection, schedule: Q01DX005 (ip), vehicle: saline 111 % of control | endpoint: mean survival time, dose: 1.0 mg/kg/injection, schedule: Q03HX024 (ip), vehicle: saline 111 % of control | endpoint: mean survival time, dose: 2.0 mg/kg/injection, schedule: Q01DX005 (ip), vehicle: saline 107 % of control and 108 % of control | endpoint: mean survival time, dose: 2.0 mg/kg/injection, schedule: Q01DX009 (ip), vehicle: saline 103 % of control | endpoint: mean survival time, dose: 2.0 mg/kg/injection, schedule: Q03HX016 (ip), vehicle: saline 111 % of control | endpoint: mean survival time, dose: 2.0 mg/kg/injection, schedule: Q04DX003 (ip), vehicle: saline 103 % of control and 104 % of control | endpoint: mean survival time, dose: 2.32 mg/kg/injection, schedule: Q01DX005 (ip), vehicle: saline 117 % of control | endpoint: mean survival time, dose: 4.0 mg/kg/injection, schedule: Q01DX005 (ip), vehicle: saline 119 % of control [middle of 4 runs] | endpoint: mean survival time, dose: 4.0 mg/kg/injection, schedule: Q01DX005 (sc), vehicle: saline 122 % of control | endpoint: mean survival time, dose: 4.0 mg/kg/injection, schedule: Q01DX009 (ip), vehicle: saline 103 % of control and 119 % of control | endpoint: mean survival time, dose: 4.0 mg/kg/injection, schedule: Q04DX003 (ip), vehicle: saline 107 % of control and 105 % of control and 108 % of control | endpoint: mean survival time, dose: 4.64 mg/kg/injection, schedule: Q01DX005 (ip), vehicle: saline 116 % of control | endpoint: mean survival time, dose: 4.64 mg/kg/injection, schedule: Q04DX003 (ip), vehicle: saline 106 % of control | endpoint: mean survival time, dose: 8.0 mg/kg/injection, schedule: Q01DX005 (oral), vehicle: saline 102 % of control | endpoint: mean survival time, dose: 8.0 mg/kg/injection, schedule: Q01DX005 (sc), vehicle: saline 119 % of control | endpoint: mean survival time, dose: 8.0 mg/kg/injection, schedule: Q01DX009 (ip), vehicle: saline 108 % of control | endpoint: mean survival time, dose: 8.0 mg/kg/injection, schedule: Q04DX003 (ip), vehicle: saline 111 % of control [middle of 4 runs] | endpoint: mean survival time, dose: 9.28 mg/kg/injection, schedule: Q04DX003 (ip), vehicle: saline 94 % of control | endpoint: mean survival time, dose: 16.0 mg/kg/injection, schedule: Q01DX005 (oral), vehicle: saline 116 % of control | endpoint: mean survival time, dose: 16.0 mg/kg/injection, schedule: Q01DX005 (sc), vehicle: saline 105 % of control | endpoint: mean survival time, dose: 16.0 mg/kg/injection, schedule: Q08DX002 (ip), vehicle: saline 120 % of control | endpoint: mean survival time, dose: 32.0 mg/kg/injection, schedule: Q01DX001 (sc), vehicle: saline 110 % of control | endpoint: mean survival time, dose: 37.12 mg/kg/injection, schedule: Q04DX003 (ip), vehicle: saline 108 % of control | endpoint: mean survival time, dose: 64.0 mg/kg/injection, schedule: Q01DX001 (sc), vehicle: saline 121 % of control | endpoint: mean survival time, dose: 64.0 mg/kg/injection, schedule: Q04DX003 (ip), vehicle: saline 102 % of control | endpoint: median survival time, dose: 4.0 mg/kg/injection, schedule: Q04DX003 (ip), vehicle: saline 102 % of control | endpoint: median survival time, dose: 8.0 mg/kg/injection, schedule: Q04DX003 (ip), vehicle: saline 107 % of control | endpoint: median survival time, dose: 16.0 mg/kg/injection, schedule: Q04DX003 (ip), vehicle: saline 110 % of control

COc1ccc(NC(=O)C(Br)C(Br)c2ccccc2)c(Cl)c1 (configuration not stated)
inactive: endpoint: mean survival time, dose: 100.0 mg/kg/injection, schedule: Q01DX009 (ip), vehicle: Klucel (hydroxypropylcellulose) (HPC) 102 % of control | endpoint: mean survival time, dose: 200.0 mg/kg/injection, schedule: Q01DX009 (ip), vehicle: Klucel (hydroxypropylcellulose) (HPC) 97 % of control | endpoint: mean survival time, dose: 400.0 mg/kg/injection, schedule: Q01DX009 (ip), vehicle: Klucel (hydroxypropylcellulose) (HPC) 96 % of control

CCOC(=O)CCc1[nH]c2nnc(C)cc2c1[N+](=O)[O-]
inactive: endpoint: mean survival time, dose: 56.3 mg/kg/injection, schedule: Q04DX002 (ip), vehicle: Klucel (hydroxypropylcellulose) (HPC) 100 % of control | endpoint: mean survival time, dose: 112.5 mg/kg/injection, schedule: Q04DX002 (ip), vehicle: Klucel (hydroxypropylcellulose) (HPC) 106 % of control | endpoint: mean survival time, dose: 225.0 mg/kg/injection, schedule: Q04DX002 (ip), vehicle: Klucel (hydroxypropylcellulose) (HPC) 91 % of control

O=C1CC(c2ccc(Cl)cc2)NC(c2ccc(Cl)cc2)C1 (configuration not stated)
inactive: [1] 101 % of control | [2] 93 % of control | [3] 101 % of control | [4] 96 % of control | [5] 103 % of control | [6] 98 % of control

COc1ccc(COC(=O)NC2CCCCC2)cc1OC
inactive: endpoint: mean survival time, dose: 65.0 mg/kg/injection, schedule: Q01DX009 (ip), vehicle: saline 93 % of control | [7] 93 % of control | [8] 112 % of control | [9] 101 % of control | [10] 104 % of control | [11] 118 % of control | [12] 102 % of control | [13] 102 % of control

Cc1ccc(N2C(=O)c3cc4ccccc4c(-c4ccccn4)c3C2=O)cc1
inactive: endpoint: mean survival time, dose: 12.5 mg/kg/injection, schedule: Q04DX003 (ip), vehicle: Klucel (hydroxypropylcellulose) (HPC) 103 % of control | endpoint: mean survival time, dose: 25.0 mg/kg/injection, schedule: Q04DX003 (ip), vehicle: Klucel (hydroxypropylcellulose) (HPC) 103 % of control | endpoint: mean survival time, dose: 50.0 mg/kg/injection, schedule: Q04DX003 (ip), vehicle: Klucel (hydroxypropylcellulose) (HPC) 103 % of control | endpoint: mean survival time, dose: 100.0 mg/kg/injection, schedule: Q04DX003 (ip), vehicle: Klucel (hydroxypropylcellulose) (HPC) 94 % of control

Cc1csc2nccc(Cl)c12
inactive: endpoint: mean survival time, dose: 50.0 mg/kg/injection, schedule: Q04DX002 (ip), vehicle: saline with Tween-80 98 % of control | endpoint: mean survival time, dose: 100.0 mg/kg/injection, schedule: Q04DX002 (ip), vehicle: saline with Tween-80 91 % of control

Nc1ncc2[nH]c(I)nc2n1
inactive: [14] 98 % of control

CCOc1cccc(OC(C)=O)c1
inactive: endpoint: mean survival time, dose: 75.0 mg/kg/injection, schedule: Q01DX001 (ip), vehicle: carboxymethylcellulose (CMC) 103 % of control | endpoint: mean survival time, dose: 150.0 mg/kg/injection, schedule: Q01DX001 (ip), vehicle: carboxymethylcellulose (CMC) 90 % of control

C[N+](C)(CCC#N)Cc1ccc(C[N+](C)(C)CCC#N)cc1
inactive: [14] 90 % of control | endpoint: mean survival time, dose: 10.0 mg/kg/injection, schedule: Q01DX001 (ip), vehicle: saline 95 % of control | endpoint: mean survival time, dose: 20.0 mg/kg/injection, schedule: Q01DX001 (ip), vehicle: saline 95 % of control

CC1c2ccccc2OC(=O)C1C(=O)O (configuration not stated)
inactive: endpoint: mean survival time, dose: 88.8 mg/kg/injection, schedule: Q01DX001 (ip), vehicle: carboxymethylcellulose (CMC) 94 % of control | endpoint: mean survival time, dose: 100.0 mg/kg/injection, schedule: Q01DX001 (ip), vehicle: carboxymethylcellulose (CMC) 94 % of control | endpoint: mean survival time, dose: 133.4 mg/kg/injection, schedule: Q01DX001 (ip), vehicle: carboxymethylcellulose (CMC) 94 % of control | endpoint: mean survival time, dose: 300.0 mg/kg/injection, schedule: Q01DX001 (ip), vehicle: carboxymethylcellulose (CMC) 100 % of control | endpoint: mean survival time, dose: 400.0 mg/kg/injection, schedule: Q01DX001 (ip), vehicle: carboxymethylcellulose (CMC) 94 % of control

Nc1cc2c3ccccc3ncc2c2ccccc12
inactive: [1] 106 % of control | [2] 104 % of control | [3] 108 % of control | [4] 94 % of control | [5] 108 % of control | [6] 105 % of control

NC(Cc1cc(Cl)c(O)c(Cl)c1)C(=O)O (configuration not stated)
inactive: [7] 103 % of control | [9] 108 % of control | [10] 103 % of control

CCN=C(NCC)Nc1ccc(NC(=O)Nc2ccc(NC(=O)Nc3ccc(NC(=NCC)NCC)cc3)cc2)cc1
inactive: endpoint: mean survival time, dose: 1.0 mg/kg/injection, schedule: Q01DX Z (ip), vehicle: carboxymethylcellulose (CMC) 97 % of control | endpoint: mean survival time, dose: 2.0 mg/kg/injection, schedule: Q01DX Z (ip), vehicle: carboxymethylcellulose (CMC) 96 % of control | endpoint: mean survival time, dose: 4.1 mg/kg/injection, schedule: Q01DX Z (ip), vehicle: carboxymethylcellulose (CMC) 102 % of control | endpoint: mean survival time, dose: 8.3 mg/kg/injection, schedule: Q01DX Z (ip), vehicle: carboxymethylcellulose (CMC) 111 % of control

CC(=O)C1(O)CCCCC1
inactive: [7] 104 % of control | [8] 92 % of control | [10] 98 % of control | [11] 98 % of control | [12] 109 % of control | [13] 94 % of control

CCOC1=CC(=O)C(C)(CC=C(C)C)C(C)C1 (configuration not stated)
inactive: endpoint: mean survival time, dose: 50.0 mg/kg/injection, schedule: Q01DX009 (ip), vehicle: saline with Tween-80 100 % of control | [1] 92 % of control | [3] 96 % of control
